{"source": "patent US20210153773A1", "about": "“DEVICE AND METHOD FOR DETECTION AND MONITORING OF COUGH” (priority 2019, published 2021)", "tested_on": "cough reflex", "assay": "Citric acid spray tussive challenge (cough provocation)", "details": "50 mg/mL in distilled water, perfume sprayer held about 1 foot from the nose, ~0.07 to 0.10 mL per activation, every subject tested (n=10)", "procedure": "When held at about 1 foot in front of the nose and activated, a fine spray of ˜0.07 to 0.10 mL is released per activation.", "data": [{"compound": "O=C(O)CC(O)(CC(=O)O)C(=O)O", "note": "[citric acid]", "values": [{"measurement": "number of coughs provoked by inhaled spray", "result": "one to six"}]}]}
